PubChem BioAssay (NCI)
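Method: 48-hour compound exposure of cells in 96-well plates, five concentrations, linear interpolation of endpoints. GI50 = concentration required for 50% inhibition of growth. The concentration for full growth arrest is given as TGI.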

Tests used:
Assay in all cases: NCI anticancer screen, dose series, 48 h
[1] = tested on: 786-0 renal
[2] = tested on: A498 renal
[3] = tested on: A549 NSCLC
[4] = tested on: ACHN renal
[5] = tested on: BT-549 breast
[6] = tested on: CCRF-CEM leukemia
[7] = tested on: COLO 205 colon
[8] = tested on: DU-145 prostate
[9] = tested on: EKVX NSCLC
[10] = tested on: HCC-2998 colon
[11] = tested on: HCT-116 colon
[12] = tested on: HCT-15 colon
[13] = tested on: HL-60(TB) leukemia
[14] = tested on: HOP-62 NSCLC
[15] = tested on: HOP-92 NSCLC
[16] = tested on: HS 578T breast
[17] = tested on: HT29 colon
[18] = tested on: IGROV1 ovarian
[19] = tested on: K-562 leukemia
[20] = tested on: KM12 colon
[21] = tested on: LOX IMVI melanoma
[22] = tested on: M14 melanoma
[23] = tested on: MALME-3M melanoma
[24] = tested on: MCF7 breast
[25] = tested on: MDA-MB-231 breast
[26] = tested on: MDA-MB-435
[27] = tested on: MOLT-4 leukemia
[28] = tested on: NCI-H226 lung
[29] = tested on: NCI-H23 lung
[30] = tested on: NCI-H460 lung
[31] = tested on: NCI-H522 lung
[32] = tested on: NCI/ADR-RES ovarian
[33] = tested on: OVCAR-3 ovarian
[34] = tested on: OVCAR-4 ovarian
[35] = tested on: OVCAR-5 ovarian
[36] = tested on: OVCAR-8 ovarian
[37] = tested on: PC-3 prostate
[38] = tested on: RPMI-8226 leukemia
[39] = tested on: RXF 393 renal
[40] = tested on: SF-268 CNS
[41] = tested on: SF-295 CNS
[42] = tested on: SF-539 CNS
[43] = tested on: SK-MEL-2 melanoma
[44] = tested on: SK-MEL-28 melanoma
[45] = tested on: SK-MEL-5 melanoma
[46] = tested on: SK-OV-3 ovarian
[47] = tested on: SN12C renal
[48] = tested on: SNB-19 CNS
[49] = tested on: SNB-75 CNS
[50] = tested on: SR leukemia
[51] = tested on: SW-620 colon
[52] = tested on: T-47D breast
[53] = tested on: TK-10 renal
[54] = tested on: U251 CNS
[55] = tested on: UACC-257 melanoma
[56] = tested on: UACC-62 melanoma
[57] = tested on: UO-31 renal
[58] = tested on: CAKI-1 renal

In the case of `CC[N+](CC)=c1sc2c(s1)C(c1ccc(Cl)cc1)Oc1ccc(Cl)cc1-2` (configuration not stated), the GI50 [1] is reported as 1.92 µM, the TGI [1] is reported as 3.76 µM and the GI50 [2] is reported as 3.37 µM. For the same compound, the TGI [2] was 10.2 µM, the GI50 [3] was 1.86 µM and the TGI [3] was 6.9 µM. For the same compound, the GI50 [4] was 11.3 µM, the TGI [4] was 23.9 µM and the GI50 [5] was 0.749 µM. For the same compound, the TGI [5] was 2.31 µM, the GI50 [6] was 0.665 µM and the TGI [6] was 6.35 µM. It also gave a GI50 [7] of 1.65 µM, a TGI [7] of 3.77 µM and a GI50 [8] of 3.32 µM. The TGI [8] was 10.6 µM, the GI50 [9] was 1.96 µM and the TGI [9] was 9.53 µM. For the same compound, the GI50 [10] was 1.52 µM, the TGI [10] was 3.74 µM and the GI50 [11] was 0.568 µM. It also gave a TGI [11] of 1.89 µM, a GI50 [12] of 7.13 µM and a TGI [12] of 21.5 µM. For the same compound, the GI50 [13] was 2.22 µM, the TGI [13] was 5.98 µM and the GI50 [14] was 1.22 µM. For the same compound, the TGI [14] was 5.56 µM, the GI50 [15] was 2.4 µM and the TGI [15] was 5.66 µM. It also gave a GI50 [16] of 1.43 µM, a TGI [16] of 5.59 µM and a GI50 [17] of 2.2 µM. For the same compound, the TGI [17] was 5.07 µM, the GI50 [18] was 1.6 µM and the TGI [18] was 10.7 µM. It also gave a GI50 [19] of 0.917 µM, a TGI [19] of 10.3 µM and a GI50 [20] of 0.456 µM. The TGI [20] was 1.91 µM, the GI50 [21] was 1.51 µM and the TGI [21] was 3.22 µM. It also gave a GI50 [22] of 1.86 µM, a TGI [22] of 4 µM and a GI50 [23] of 1.44 µM. It also gave a TGI [23] of 3.88 µM, a GI50 [24] of 1.54 µM and a TGI [24] of 4.73 µM. It also gave a GI50 [25] of 1.93 µM, a TGI [25] of 4.35 µM and a GI50 [26] of 2.04 µM. It also gave a TGI [26] of 4.66 µM, a GI50 [27] of 2.16 µM and a TGI [27] of 6.41 µM. It also gave a GI50 [28] of 5.56 µM, a TGI [28] of 33.1 µM and a GI50 [29] of 1.07 µM. It also gave a TGI [29] of 6.79 µM, a GI50 [30] of 0.503 µM and a TGI [30] of 1.89 µM. The GI50 [31] was 0.67 µM, the TGI [31] was 2.89 µM and the GI50 [32] was 21.6 µM. The TGI [32] was 67.2 µM, the GI50 [33] was 1.91 µM and the TGI [33] was 3.95 µM. For the same compound, the GI50 [34] was 3.03 µM, the TGI [34] was 12.7 µM and the GI50 [35] was 2.32 µM. It also gave a TGI [35] of 6.11 µM, a GI50 [36] of 1.97 µM and a TGI [36] of 5.41 µM. It also gave a GI50 [37] of 1.38 µM, a TGI [37] of 3.28 µM and a GI50 [38] of 1.99 µM. For the same compound, the TGI [38] was 7.5 µM, the GI50 [39] was 2.26 µM and the TGI [39] was 4.86 µM. For the same compound, the GI50 [40] was 0.461 µM, the TGI [40] was 2.08 µM and the GI50 [41] was 1.09 µM. The TGI [41] was 4.64 µM, the GI50 [42] was 1.46 µM and the TGI [42] was 2.97 µM. The GI50 [43] was 1.03 µM, the TGI [43] was 2.81 µM and the GI50 [44] was 1.32 µM. It also gave a TGI [44] of 2.82 µM, a GI50 [45] of 1.22 µM and a TGI [45] of 2.53 µM. The GI50 [46] was 2.51 µM, the TGI [46] was 8.72 µM and the GI50 [47] was 1.33 µM. For the same compound, the TGI [47] was 3.33 µM, the GI50 [48] was 0.487 µM and the TGI [48] was 1.84 µM. For the same compound, the GI50 [49] was 0.783 µM, the TGI [49] was 10.6 µM and the GI50 [50] was 2.68 µM. The TGI [50] was 7.15 µM, the GI50 [51] was 1.08 µM and the TGI [51] was 2.72 µM. For the same compound, the GI50 [52] was 1.67 µM, the TGI [52] was 6.39 µM and the GI50 [53] was 3.38 µM. For the same compound, the TGI [53] was 6.61 µM, the GI50 [54] was 0.374 µM and the TGI [54] was 1.37 µM. It also gave a GI50 [55] of 2.33 µM, a TGI [55] of 5.46 µM and a GI50 [56] of 1.65 µM. For the same compound, the TGI [56] was 4.14 µM, the GI50 [57] was 2.82 µM and the TGI [57] was 15.4 µM.

With `COc1ccc(S(=O)(=O)N2CC(C)(C)CN(S(=O)(=O)c3ccc(OC)cc3)C2C(=O)NO)cc1` the GI50 [1] was > 20 µM, the TGI [1] was > 20 µM and the GI50 [2] was > 20 µM. For the same compound, the TGI [2] was > 20 µM, the GI50 [3] was > 20 µM and the TGI [3] was > 20 µM. The GI50 [4] was > 20 µM, the TGI [4] was > 20 µM and the GI50 [5] was > 20 µM. For the same compound, the TGI [5] was > 20 µM, the GI50 [58] was > 14.1 µM and the TGI [58] was > 20 µM. The GI50 [6] was 1.29 µM, the TGI [6] was > 16.6 µM and the GI50 [7] was > 20 µM. The TGI [7] was > 20 µM, the GI50 [8] was > 20 µM and the TGI [8] was > 20 µM. For the same compound, the GI50 [9] was 12.3 µM, the TGI [9] was > 20 µM and the GI50 [11] was > 20 µM. For the same compound, the TGI [11] was > 20 µM, the GI50 [12] was > 20 µM and the TGI [12] was > 20 µM. The GI50 [13] was > 10.6 µM, the TGI [13] was > 20 µM and the GI50 [14] was > 20 µM. The TGI [14] was > 20 µM, the GI50 [15] was 8.14 µM and the TGI [15] was > 20 µM. The GI50 [16] was > 6.77 µM, the TGI [16] was > 20 µM and the GI50 [17] was > 20 µM. For the same compound, the TGI [17] was > 20 µM, the GI50 [18] was > 20 µM and the TGI [18] was > 20 µM. The GI50 [19] was > 20 µM, the TGI [19] was > 20 µM and the GI50 [20] was > 20 µM. For the same compound, the TGI [20] was > 20 µM, the GI50 [21] was > 11.1 µM and the TGI [21] was > 20 µM. The GI50 [22] was > 20 µM, the TGI [22] was > 20 µM and the GI50 [23] was 5.93 µM. For the same compound, the TGI [23] was > 20 µM, the GI50 [24] was > 20 µM and the TGI [24] was > 20 µM. For the same compound, the GI50 [25] was > 16.2 µM, the TGI [25] was > 20 µM and the GI50 [26] was > 20 µM. The TGI [26] was > 20 µM, the GI50 [27] was > 11 µM and the TGI [27] was > 20 µM. The GI50 [28] was > 17.1 µM, the TGI [28] was > 20 µM and the GI50 [29] was > 20 µM. For the same compound, the TGI [29] was > 20 µM, the GI50 [30] was > 20 µM and the TGI [30] was > 20 µM. For the same compound, the GI50 [31] was > 20 µM, the TGI [31] was > 20 µM and the GI50 [32] was > 20 µM. For the same compound, the TGI [32] was > 20 µM, the GI50 [33] was 19.8 µM and the TGI [33] was > 20 µM. The GI50 [34] was > 20 µM, the TGI [34] was > 20 µM and the GI50 [35] was > 20 µM. The TGI [35] was > 20 µM, the GI50 [36] was > 20 µM and the TGI [36] was > 20 µM. For the same compound, the GI50 [37] was > 20 µM, the TGI [37] was > 20 µM and the GI50 [38] was 6.37 µM. The TGI [38] was > 20 µM, the GI50 [39] was > 14.2 µM and the TGI [39] was > 20 µM. The GI50 [40] was > 20 µM, the TGI [40] was > 20 µM and the GI50 [41] was > 20 µM. For the same compound, the TGI [41] was > 20 µM, the GI50 [42] was > 20 µM and the TGI [42] was > 20 µM. The GI50 [43] was > 20 µM, the TGI [43] was > 20 µM and the GI50 [44] was > 20 µM. The TGI [44] was > 20 µM, the TGI [45] was > 7.63 µM and the GI50 [46] was > 20 µM. For the same compound, the TGI [46] was > 20 µM, the GI50 [47] was > 20 µM and the TGI [47] was > 20 µM. The GI50 [48] was > 20 µM, the TGI [48] was > 20 µM and the GI50 [49] was > 20 µM. For the same compound, the TGI [49] was > 20 µM, the GI50 [50] was 13.6 µM and the TGI [50] was > 20 µM. The GI50 [51] was > 20 µM, the TGI [51] was > 20 µM and the GI50 [52] was > 20 µM. The TGI [52] was > 20 µM, the GI50 [53] was 19.5 µM and the TGI [53] was > 20 µM. The GI50 [54] was > 20 µM, the TGI [54] was > 20 µM and the GI50 [55] was > 19.1 µM. For the same compound, the TGI [55] was > 20 µM, the GI50 [56] was > 19.2 µM and the TGI [56] was > 20 µM. For the same compound, the GI50 [57] was > 11.5 µM and the TGI [57] was > 20 µM.
